Source: patent US20220251124A1, “3,5-BIS(PHENYL)-1H-HETEROARYL DERIVATIVES AS MEDICAMENTS” (INSTITUTE OF BIOTECHNOLOGY CAS, V.V.I., priority 2019, published 2022)

Experiments:
Format in all cases: cell-based
MDA-MB-231 [1] = assay: annexin V/PI staining, cell death induction, 48 hrs
Experimental: (§1) This effect seems to be based mainly on the cytostatic effect of compound 1. To define the ability to kill cells, cell death-inducing potency (cytotoxic efficacy) of DFX and compound 1 have been tested via annexin V/PI staining commonly used as a measure of apoptotic/necrotic cell death. Briefly, cells were seeded in 12-well plate at 100,000 per well, incubated with the selected compounds for 48 hours, then floating cells were spun, adherent cells trypsinized and spun as well followed by the staining with AnnexinV-FITC and PI probes. Cells were then washed with PBS and measured via Fluorescence Activated Sorter.
(§2) Since compound 1 is an iron chelator, we have evaluated the effect of pre-loading compound 1 with iron at a 2:1 ratio and then applying it to the cells, followed by measurement of cell death using the Annexin V/PI staining as in example 4.

MCF7 [2] = assay: as above
Experimental: as §1, §2

[3] = tested on: MCF7 mammospheres (cancer stem-like cells); assay: formation and growth of mammospheres, Cell Titer Glo 3D; details: 1 μM, 140 hrs
Experimental: To test the effect of compound 1 on the viability and proliferation of other resistant cancer cell types, we utilized a model of cancer stem-like cells that can be cultivated in vitro, so-called “mammospheres”. […] In this assay MCF7 spheres were dissociated to single cells/small spheres, seeded 10,000 cells per well on a special cell culture plastic that is non adherent in the Mammocult medium (Stem cell technologies) and compound 1 and compound 2 at 1 μM were added. This represents the non-cytotoxic concentration. Cells were left to grow and generate spheres for 140 hrs. The amount of cells was then measured by the Cell TiterGlo 3D reagent (Promega) that determines cell counts of 3D cultured cells as a function of their ATP content that is determined by a chemiluminescent assay.

cancer cell lines = assay: crystal violet assay, cancer cell lines overall; details: cancer cells, crystal violet
Experimental: (§3) Compound 1 and a comparative compound deferasirox (DFX) were tested in their efficacy to kill/suppress proliferation of malignant breast cancer MCF7 cells representing estrogen-dependent type of breast cancer. Briefly, 10.000 cells per well were seeded in a 96-well plate on one day and the next day the tested compounds were added and incubated with the cells for 48 hrs. The cells were then fixed with 4% paraformaldehyde, stained with 0.05% crystal violet, washed with PBS, and solubilized in 1% SDS. The absorbance of the plate at 595 nm was then measured, quantifying the number of viable cells.

MDA-MB-231 cells = assay: crystal violet assay, cellular viability, 48 hrs; details: Homo sapiens, MDA-MB-231, 48 h, MDA-MB-231, crystal violet, read-out: IC50
Experimental: as §3
Compound 1 and the comparative compound deferasirox were tested in their efficacy to kill/suppress proliferation of malignant MDA-MB-231 cancer cells representing hard to treat triple negative breast cancer. The procedure is identical to that in example 12.

MDA-MB-231 [4] = assay: cell cycle distribution, Vybrant DyeCycle Violet, flow cytometry; details: 1 μM
Experimental: (§4) In order to define the effect on cellular level, we investigated the effect of compound 1 and 2 at non-cytotoxic concentrations of the drugs (1 μM) on cell cycle. Cells were cultivated with the compounds for 24 and 48 hrs and then stained with Vybrant DyeCycle VioletReady Flow reagent (ThermoFisher Scientific) that binds to DNA and analyzed by Flow cytometry and Kaluza program to define the proportions of G1,S and G2/M phases of cell cycle. It is evident that both compounds lead to accumulation of cells in G1 phase if the cell cycle, which become more prominent at later time points (see Table 12, 13).

MCF7 [5] = assay: as above; details: 1 μM
Experimental: as §4

MCF7 cells = assay: crystal violet assay, cellular viability (cytostatic and cytotoxic effect), 48 hrs; details: Homo sapiens, MCF7, 48 h, MCF7 (parental/control), crystal violet, read-out: IC50
Experimental: as §3

MDA-MB-231 [6] = assay: cellular ROS, DCF-DA probe, flow cytometry; details: 5 μM
Experimental: (§5) The effect of compound 1 on generation of cellular reactive oxygen species (ROS) was evaluated in MCF7 and MDA-MB-231 cells using a cell permeable ROS probe 2′,7′-dichlorodihydrofluorescein diacetate (DCF-DA; Sigma-Aldrich) that measures several reactive species and becomes fluorescent upon oxidation. Cells treated with compound 1 or compound 2 (5 μM) for the described time interval were stained with the probe and then analyzed via Flow cytometry.

MCF7 [7] = assay: cellular ROS, DCF-DA probe, flow cytometry; details: 5 μM
Experimental: as §5

IC50 (cancer cell lines): ~100 nM
IC50 (MDA-MB-231 cells): 464 nM
Compound: Oc1ccccc1-c1nc(-c2ccccc2O)n(CCCCCCCCCC[P+](c2ccccc2)(c2ccccc2)c2ccccc2)n1 [Compound 2, (10-(3,5-bis(2-hydroxyphenyl)-1H-1,2,4-triazol-1-yl)decyl)triphenylphosphonium Bromide]
dead cells (AnnexinV/PI) (MDA-MB-231 [1]; 1 μM): 26.7 (5.8) %
dead cells (AnnexinV/PI) (MDA-MB-231 [1]; 2 μM): 38.5 (7.3) %
dead cells (AnnexinV/PI) (MDA-MB-231 [1]; 5 μM): 87.8 (4.2) %
dead cells (AnnexinV/PI) (MCF7 [2]; 1 μM): 44.2 (0.3) %
dead cells (AnnexinV/PI) (MCF7 [2]; 2 μM): 41.2 (0.4) %
dead cells (AnnexinV/PI) (MCF7 [2]; 5 μM): 60.8 (18.6) %
chemiluminescence ATP values normalized to control sample set as 100 [3]: 2.82 (0.28)
proportion of cells in G1 (MDA-MB-231 [4]; 24 hrs): 64.0 (7.7)
proportion of cells in G2 (MDA-MB-231 [4]; 24 hrs): 28.8 (8.0)
proportion of cells in S (MDA-MB-231 [4]; 24 hrs): 7.3
proportion of cells in G1 (MDA-MB-231 [4]; 48 hrs): 74.1 (3.7)
proportion of cells in G2 (MDA-MB-231 [4]; 48 hrs): 18.5 (5.1)
proportion of cells in S (MDA-MB-231 [4]; 48 hrs): 7.4
proportion of cells in G1 (MCF7 [5]; 24 hrs): 74.0 (1.3)
proportion of cells in G2 (MCF7 [5]; 24 hrs): 20.3
proportion of cells in S (MCF7 [5]; 24 hrs): 5.7
proportion of cells in G1 (MCF7 [5]; 48 hrs): 77.5 (2.2)
proportion of cells in G2 (MCF7 [5]; 48 hrs): 11.7 (3.8)
proportion of cells in S (MCF7 [5]; 48 hrs): 10.8 (4.8)
IC50 (MCF7 cells): 175 nM
DCF-DA mean fluorescence (MDA-MB-231 [6]; 5 min, MDA-MB-231 (0 min = 100)): 255.9 (66.3)
DCF-DA mean fluorescence (MDA-MB-231 [6]; 10 min, MDA-MB-231): 343.5 (78.9)
DCF-DA mean fluorescence (MDA-MB-231 [6]; 15 min, MDA-MB-231): 555.6 (122.4)
DCF-DA mean fluorescence (MDA-MB-231 [6]; 30 min, MDA-MB-231): 473.4 (136.1)
DCF-DA mean fluorescence (MDA-MB-231 [6]; 60 min, MDA-MB-231): 332.0 (158.7)
DCF-DA mean fluorescence (MCF7 [7]; 5 min, MCF7 (0 min = 100)): 316.5 (96.0)
DCF-DA mean fluorescence (MCF7 [7]; 10 min, MCF7): 558.3 (186.5)
DCF-DA mean fluorescence (MCF7 [7]; 15 min, MCF7): 821.5 (73.8)
DCF-DA mean fluorescence (MCF7 [7]; 30 min, MCF7): 1201.0 (444.0)
DCF-DA mean fluorescence (MCF7 [7]; 60 min, MCF7): 1029.0 (407.7)
